Reference: patent US11603368B2, “Fused thiophene derivatives and their uses” (ENYO PHARMA, priority 2018, dated 2023)

How the values were obtained:
[1] = test system: H1N1 (influenza A/New Caledonia/20/99); assay: Antiviral effect on A549 cells infected with H1N1; format: cell-based, H1N1 A/New Caledonia/20/99 virus; conditions: Human A549 cells, MOI of 0.1, 48 h post-infection, MUNANA hydrolysis readout
Description: The antiviral effect of the compounds of the invention has been tested on A549 cell lines infected with H1N1 (influenza A/New Caledonia/20/99).
Human A549 cells (80,000 cells/well in a 96 well plate) were treated with a range of concentration of test molecules and immediately infected by H1N1 A/New Caledonia/20/99 virus (clinical isolate) at MOI of 0.1 in DMEM/1% Penicillin/streptomycin supplemented with 0.25 μg/ml TPCK trypsin (Sigma) and incubated at 37° C. in 5% CO2. 48 h post-infection, supernatants (25 μl) were collected and transferred into a 96-well black flat-bottom plate, mixed with 25 μl PBS with Ca++/Mg++(Thermo Fisher) and 50 μl of 2′-(4-Methylumbelliferyl)-α-D-N-acetylneuraminic acid sodium salt hydrate stock-solution (20 μM, MUNANA, Sigma). Plates were incubated 1 h at 37° C. and reaction is stopped by adding 100 μl of Stop Solution (glycine 0.1 M pH10.7/25% ethanol). The amount of fluorescent product released by MUNANA hydrolysis (4-MU) was measured in a Tecan spectrophotometer with excitation and emission wavelengths of 365 and 450 nm respectively.

NFκB = NFκB reporter assay, TNFα stimulation; format: cell-based; conditions: Homo sapiens; A549 NFκB-NanoLuciferase reporter cells, 4 ng/ml TNFα, 6 hours
Text: Compounds of the present invention have been tested for their capacity to inhibit NFκB.
The NFκB reporter construct was made by cloning 5 NFκB responsive elements upstream of a NanoLuciferase reporter gene flanked by AAVS1 genomic sequences.
NFκB Responsive element fused with NanoLuciferase and SV40 late Poly(A) signal was amplified from pNL3.2-NFκB-Nluc (Promega) using NFκB-NLUC-F and NFκB-NLUC-R primers and inserted by Infusion (TaKaRa) in AAVS1 SA-2A-puro-pA donor plasmid (Hockemeyer et al, Nat Biotechnol. 2009, 27, 851-7) digested by Sal1. pCRISPR AAVS1-T2 expressing a guide RNA (gRNA) to target human AAVS1 (T2 target sequence) was constructed by inserting AAVS1-T2A hybridized primers in pLentiCRISPR v2-blast (Sanjana et al, Nat Methods. 2014, 11, 783-4) digested by Bsmb1.
A549 cells were transfected by the plasmids and puromycine selected for 5 days (1 μg mL-1). Then clones were obtained by limiting dilution and selected to maximize TNF dependent NFkB-NanoLuciferase induction.
The reporter cells were seeded on a 96-well plate for overnight with DMEM including 10% FBS. Test compounds were added at varying concentrations. The cells then were treated with 4 ng/ml TNFα (Peprotech, ref E251) in DMEM+10% FBS. NanoGlo luciferase assay (Promega) was carried out 6 hours later. Luminescence was measured using a Spark 20M spectrofluorimeter (Tecan). Values were normalized to the luminescence measured in untreated cells.

[2] = molecular target: T1, CISD1 Gene Product (mitoNEET) (Homo sapiens, UniProt Q9NZ45); assay: Stability of Fe—S cluster binding of purified NEET protein mitoNEET; format: biochemical; conditions: for Time (in minutes) to achieve 50% loss of bound cluster (Absorbance 458 nm), CISD1 Gene Product (mitoNEET) / Residual cluster bound at end of experiment (Percentage Absorbance 458 nm at time zero), CISD1 Gene Product (mitoNEET): pH 6, 37° C., 1:3 protein:compound molar ratio; for Time (in minutes) to achieve 50% loss of bound cluster (Absorbance 458 nm), CISD1 Gene Product (mitoNEET): 6 μM compound, run time 180 minutes, Vehicle Control 80; for Residual cluster bound at end of experiment (Percentage Absorbance 458 nm at time zero), CISD1 Gene Product (mitoNEET): end of 180 minutes, Vehicle Control 16%; for stabiliser or destabiliser of Fe—S cluster binding, CISD1 Gene Product (mitoNEET): time to 50% Fe—S cluster bound loss changed by more than 25% vs Control sample, at the concentrations tested
T1 sequence (Q9NZ45 33-108 limits assumed): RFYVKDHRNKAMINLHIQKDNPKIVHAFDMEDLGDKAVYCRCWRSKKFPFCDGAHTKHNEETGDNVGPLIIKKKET
Description: (§1) The modulator effect on the NEET proteins encoded by human CISD1, CISD2, and CISD3 genes by the compounds of the invention has been tested and is reported below. Particularly, the biochemical function of the NEET proteins is measured by the stability of Fe—S cluster binding of the purified NEET proteins.
(§2) The Fe—S cluster binding capacity of NEET proteins is known to be coordinated by four amino-acids in a stretch of 16 (three Cysteine and one Histidine). As the lability of the Fe—S cluster of NEET proteins is sensitive to the environment, cluster stability measurements are one of the measures of interactions of NEET proteins with small molecules and compounds. NEET protein/2Fe-2S cluster stability can be assessed by monitoring the decay in absorbance of its characteristic 458-nm peak (characteristic of the oxidized 2Fe-2S cluster) over time. Each NEET protein (mitoNEET, NAF-1 and Miner 2) was tested for its Fe—S binding in the absence or presence of a compound according to the invention (see table 2 below). The rate of cluster release (time in minutes to achieve 50% loss of bound Fe—S cluster) was compared for each NEET protein in the presence of one of the compounds of the invention (in a 1:3 protein:compound molar ratio) relative to each protein alone.
(§3) At pH 6, all the three NEET proteins (mitoNEET, NAF-1 and Miner 2) have a characteristic rate of loss of the bound Fe—S cluster that can be measured by the decrease of absorbance at wavelength 458 nm over time, using a spectrophotometer. Thus, Bis-Tris buffer (100 mM Bis-Tris pH6, 100 mM Nacl) was used at pH 6 to dilute either DMSO (Blank sample: Bis-Tris Buffer pH 6, 6 μM DMSO), DMSO and one of the three NEET proteins (Control sample: Bis-Tris Buffer pH 6, 6 μM DMSO, 2 μM purified NEET protein) or DMSO, one of the three NEET proteins and a compound of the invention (Test sample: Bis-Tris Buffer pH 6, 6 μM DMSO, […], 6 μM compound of the invention).
(§4) A reaction mix containing DMSO diluted in the Bis-Tris Buffer with or without a compound of the invention was prepared. The purified NEET protein was the last component added to the reaction mix which was then aliquoted into 4 replicates in 96 wells plates. The absorbance at wavelength 458 nm was taken at 5 minutes intervals at 37° C. with a spectrofluorimeter. The assay run time for CISD2 gene product (NAF-1) was 500 minutes and 180 minutes for both the CISD 1 gene product (mitoNEET) and the CISD3 gene product (Miner 2).
(§5) In addition to time monitoring, residual bound Fe—S cluster to NEET protein was measured at the final point of the spectrometry assay for each Test sample and compared to the Control sample data (in parenthesis table 2). This residual binding is measured by the differential percentage between the absorbance 458 nm at time zero and the absorbance 458 nm at the end of the experiment (i.e. respectively 500 or 180 minutes as described hereabove), showing the percentage of NEET protein still able to bind a Fe—S cluster.
(§6) Analysis of the absorbance enables the time for which 50% loss of bound Fe—S cluster is reached (i.e. a 50% absorbance decrease at 458 nm) for each Test sample and each Control sample (in parenthesis table 2) to be determined. The data are then compared to determine whether the compound of the invention stabilizes or destabilizes the NEET protein/Fe—S cluster binding.

[3] = molecular target: T2, CISD3 Gene Product (Miner2) (Homo sapiens, UniProt P0C7P0); assay: Stability of Fe—S cluster binding of purified NEET protein Miner2; format: biochemical; conditions: for Time (in minutes) to achieve 50% loss of bound cluster (Absorbance 458 nm), CISD3 Gene Product (Miner2) / Residual cluster bound at end of experiment (Percentage Absorbance 458 nm at time zero), CISD3 Gene Product (DMSO 11%): pH 6, 37° C., 1:3 protein:compound molar ratio; for Time (in minutes) to achieve 50% loss of bound cluster (Absorbance 458 nm), CISD3 Gene Product (Miner2): 6 μM compound, run time 180 minutes, Vehicle Control 60; for Residual cluster bound at end of experiment (Percentage Absorbance 458 nm at time zero), CISD3 Gene Product (DMSO 11%): end of 180 minutes, Vehicle Control 11%; for stabiliser or destabiliser of Fe—S cluster binding, CISD3 Gene Product (Miner2): time to 50% Fe—S cluster bound loss changed by more than 25% vs Control sample, at the concentrations tested
T2 sequence (P0C7P0 15-127): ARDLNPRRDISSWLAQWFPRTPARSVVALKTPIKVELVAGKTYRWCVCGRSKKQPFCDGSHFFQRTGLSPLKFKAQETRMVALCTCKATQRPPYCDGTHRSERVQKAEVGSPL
Description: as §1, §2, §3, §4, §5, §6

[4] = molecular target: T3, CISD2 Gene Product (NAF-1) (Homo sapiens, UniProt Q8N5K1); assay: Stability of Fe—S cluster binding of purified NEET protein NAF-1; format: biochemical; conditions: for Time (in minutes) to achieve 50% loss of bound cluster (Absorbance 458 nm), CISD2 Gene Product (NAF-1) / Residual cluster bound at end of experiment (Percentage Absorbance 458 nm at time zero), CISD2 Gene Product (NAF-1): pH 6, 37° C., 1:3 protein:compound molar ratio; for Time (in minutes) to achieve 50% loss of bound cluster (Absorbance 458 nm), CISD2 Gene Product (NAF-1): 6 μM compound, run time 500 minutes, Vehicle Control 310; for Residual cluster bound at end of experiment (Percentage Absorbance 458 nm at time zero), CISD2 Gene Product (NAF-1): end of 500 minutes, Vehicle Control 3%
T3 sequence (Q8N5K1 57-135 limits assumed): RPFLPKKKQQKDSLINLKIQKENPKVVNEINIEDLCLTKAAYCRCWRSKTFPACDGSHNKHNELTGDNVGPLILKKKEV
Description: as §1, §2, §3, §4, §5, §6

[5] = Influenza A virus, H1N1, A549, 48 h

| Compound | IC50 [1, 5] [µM] | EC50 (NFκB) [µM] | Time (in minutes) to achieve 50% loss of bound cluster (Absorbance 458 nm), CISD1 Gene Product (mitoNEET) [2] | Residual cluster bound at end of experiment (Percentage Absorbance 458 nm at time zero), CISD1 Gene Product (mitoNEET) [2] [%] | stabiliser or destabiliser of Fe—S cluster binding, CISD1 Gene Product (mitoNEET) [2] | Time (in minutes) to achieve 50% loss of bound cluster (Absorbance 458 nm), CISD3 Gene Product (Miner2) [3] | Residual cluster bound at end of experiment (Percentage Absorbance 458 nm at time zero), CISD3 Gene Product (DMSO 11%) [3] [%] | stabiliser or destabiliser of Fe—S cluster binding, CISD3 Gene Product (Miner2) [3] | Time (in minutes) to achieve 50% loss of bound cluster (Absorbance 458 nm), CISD2 Gene Product (NAF-1) [4] [min] | Residual cluster bound at end of experiment (Percentage Absorbance 458 nm at time zero), CISD2 Gene Product (NAF-1) [4] [%] | IC50 [1] [µM] | stabiliser or destabiliser of Fe—S cluster binding, CISD2 Gene Product (NAF-1) ([4]; time to 50% Fe—S cluster bound loss changed by more than 25% vs Control sample, at the concentrations tested) |
| --- | --- | --- | --- | --- | --- | --- | --- | --- | --- | --- | --- | --- |
| COc1ccc(C(=O)Nc2sc3c(c2C(=O)O)CCC(C(C)(C)C)C3)cc1 (centres unmarked) [#1] | 0.0548 | 0.16 | – | – | – | – | – | – | – | – | – | – |
| CC(C)(C)C1CCc2c(sc(NC(=O)c3ccc(Cl)cc3)c2C(=O)O)C1 (centres unmarked) [#10] | 0.026 | 0.3 | during 180 minutes | 62 | stabilisers | during 180 minutes | 56 | Stabilisers | 290 | 42 | – | – |
| CC(C)(C)C1CCc2c(sc(NC(=O)c3ccccc3F)c2C(=O)O)C1 (centres unmarked) [#69] | – | 0.32 | – | – | – | – | – | – | – | – | 0.12 | – |
| O=C(Nc1sc2c(c1C(=O)O)C(c1ccccc1)CCC2)c1ccccc1 (centres unmarked) [#112] | 1.37 | – | 100 min | 29 | stabilisers | during 180 minutes | 64 | Stabilisers | 425 | 23 | – | Stabilisers |
| CC(C)(C)C1CCc2c(sc(NC(=O)C3CCCCC3)c2C(=O)O)C1 (centres unmarked) [#115] | 1.47 | – | 100 min | 34 | stabilisers | 65 min | 28 | – | 240 | 15 | – | – |
